Converted amounts (≈) assume the structure as drawn.

A short description of the data set: Toxicity in Artemia salina. The class given is organism-based. As to conditions: in vivo, read-out: LD50 (the source's name).

For `CC1(C)CCC[C@]2(C)[C@H]3CC[C@@]4(C)[C@@H](CC=C(C=O)[C@@H]4C=O)[C@]3(C)CC[C@@H]12` [12-DEACETOXYSCALARADIAL], the LC50 came out at 0.77 µg/mL (≈ 2.08 µM).

As for `CC(=O)O[C@H]1C[C@@H]2[C@@]3(C)CCCC(C)(C)[C@@H]3CC[C@@]2(C)[C@@H]2CC=C(C=O)[C@H](C=O)[C@@]12C` [SCALARADIAL], the LC50 was 0.18 µg/mL (≈ 0.42 µM).

The values are drawn from ChEMBL document CHEMBL1149039, “A new scalarane sesterterpenoid from the marine sponge Cacospongia mollior” (J Nat Prod, 1994).
